According to US20220273659A1, “HETEROCYCLIC COMPOUNDS AS KINASE INHIBITORS” (NUVATION BIO INC., priority 2019, published 2022):

Legend:
[1] = target: T1, CDK4 (Homo sapiens, UniProt P11802); assay: In vitro kinase inhibition IC50, luminescence (ADP Glo), retinoblastoma substrate; assay type: biochemical; conditions: read-out: CDK4/D1 IC50
T1 construct: purchased Invitrogen PR8064A
Experimental: (§1) IC50 values of compounds against CDK4 and CDK6 were determined by luminescence using retinoblastoma as substrate. Kinase assays were performed in kinase buffer (#PV6135, Invitrogen Life Technologies, Grand Island, N.Y.) where total reaction volume was […] in 96-well half area white plates (#3693, Costar). One microliter of 25×test compounds at specific concentrations (e.g., final concentration range: 0.1 nM-200 nM) was mixed with 10 μL of 2.5×kinase (5 nM, CDK4 #PR8064A and CDK6 #PR8422B, Invitrogen) solution and 14 μL of 4× mixed solution with retinoblastoma (1 μM, #12-439, EMD Millipore, Hayward, Calif.) and ATP (25 μM, #V7038, Promega, Madison, Wis.). The plates were covered and incubated for 2H at room temperature. At the end of incubation, 25 μL of stop solution—ADP Glo reagent (#V7002, Promega) was added. After incubation for 45 min at room temperature, 50 μL of detection reagent (##V7002, Promega) was added. Readings were taken at 15 min and 45 min incubation after detection reagent was added in a Synergy Neo Plate reader (BioTek, Winooski, Vt.) at single excitation of 340 nm and Dual emission at 495 nm and 520 nm respectively. The following equations were used in the CDK4 and CDK6 assay data analysis. Percent inhibition (100-% activity) was fitted to the “four-parameter logistic model” in XLfit for determination of IC50 values.
(§2) Percent conversion of enzyme=100−{(RLUNo Drug−No enzyme*100)/RLUNo drug+Enzyme} Equation 1:
(§3) Percent conversion at each data point=100−{(RLUAverage(Drug+enzyme)*100)!RLUNo drug+Enzyme} Equation 2:
(§4) Percent Inhibition=100*(% Conversioneach data point/% ConversionEnzyme) Equation 3: […]

[2] = target: T2, CDK6 (Homo sapiens, UniProt Q00534); assay: as above; assay type: biochemical; conditions: read-out: CDK6/D1 IC50
T2 construct: purchased Invitrogen PR8422B
Experimental: as §1, §2, §3, §4

[3] = test system: DU4475 breast carcinoma cells; assay: Cancer cell proliferation assay, single agent (cell viability); assay type: cell-based; conditions: Homo sapiens, DU-4475; Table 4; Rb negative; treatment 144 Hr with medium change at 72 Hr; Cell Titer-Glo or resazurin
Experimental: (§5) The effects of test compounds were studied in three breast cancer cell lines of different subtype. The cancer cells (Table 3) were harvested during the logarithmic growth period and counted. Cell concentrations were adjusted to the appropriate number with respective medium and 90 μL cell suspensions were added to 96-well plates. After cells were seeded, the plates were shaken gently to distribute cells evenly and incubated at 37° C., 5% CO2 on day 1.
(§6) Cells were treated with test compounds at 7 to 9 concentrations within a desired concentration range (e.g. 1.1 nM-10 μM) on day 2 by series diluting the test compound stock solution (10 mM in DMSO) with culture medium. Treatment duration was 24 Hr for BT-549 cells and 144 Hr (with a medium change at 72 Hr) for MCF-7 and DU4475 cells. Cell viability was assessed by Cell Titer-Glo® as recommended by Promega (Cat. No.: G7572), or by resazurin assay (Sigma Aldrich, Cat. No.: R7017) post treatment.
(§7) Cell viability data were plotted using GraphPad Prism (GraphPad Software, Inc., San Diego, Calif.). In addition, a nonlinear regression model with a sigmoidal dose response and variable slope within GraphPad Prism was used to calculate the IC50 value of individual test compounds.

[4] = test system: MCF-7 breast adenocarcinoma cells; assay: as above; assay type: cell-based; conditions: Homo sapiens, MCF7, Table 4; Rb positive; treatment 144 Hr with medium change at 72 Hr; Cell Titer-Glo or resazurin
Experimental: as §5, §6, §7

T2 sequence (Q00534 whole entry): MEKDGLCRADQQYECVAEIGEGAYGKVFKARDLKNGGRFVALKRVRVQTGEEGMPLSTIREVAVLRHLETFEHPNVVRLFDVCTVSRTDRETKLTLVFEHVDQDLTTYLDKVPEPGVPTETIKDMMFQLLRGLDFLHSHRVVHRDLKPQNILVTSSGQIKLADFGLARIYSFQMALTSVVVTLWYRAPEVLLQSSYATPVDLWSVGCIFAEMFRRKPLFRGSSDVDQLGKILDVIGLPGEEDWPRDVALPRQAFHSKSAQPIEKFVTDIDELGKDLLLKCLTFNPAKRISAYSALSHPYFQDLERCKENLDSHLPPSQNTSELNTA
T2 sequence (P24385 whole entry partner): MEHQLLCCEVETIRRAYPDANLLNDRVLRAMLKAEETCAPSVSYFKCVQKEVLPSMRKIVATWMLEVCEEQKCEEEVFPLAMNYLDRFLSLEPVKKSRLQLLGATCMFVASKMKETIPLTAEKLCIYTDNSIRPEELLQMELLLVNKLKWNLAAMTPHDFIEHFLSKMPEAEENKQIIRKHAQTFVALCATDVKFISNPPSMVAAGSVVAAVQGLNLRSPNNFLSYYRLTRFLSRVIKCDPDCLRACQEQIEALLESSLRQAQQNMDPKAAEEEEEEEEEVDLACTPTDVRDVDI
T1 sequence (P11802 whole entry): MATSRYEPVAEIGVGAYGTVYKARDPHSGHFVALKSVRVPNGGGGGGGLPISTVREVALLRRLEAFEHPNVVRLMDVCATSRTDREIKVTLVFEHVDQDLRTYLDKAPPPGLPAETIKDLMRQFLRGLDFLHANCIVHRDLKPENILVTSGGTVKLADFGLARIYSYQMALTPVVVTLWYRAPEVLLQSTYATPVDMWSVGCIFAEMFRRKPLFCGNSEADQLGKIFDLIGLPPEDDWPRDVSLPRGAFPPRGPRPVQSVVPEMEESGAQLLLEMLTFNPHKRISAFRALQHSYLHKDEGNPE
T1 sequence (P24385 whole entry partner): as the sequence (P24385 whole entry partner) above

## N#Cc1cc2cnc(Nc3ccc4c(c3)CCNC4)nc2n(CC2CC2)c1=O [Compound No. 85, 8-(cyclopropylmethyl)-7-oxo-2-((1,2,3,4-tetrahydroisoquinolin-6-yl)amino)-7,8-dihydropyrido[2,3-d]pyrimidine-6-carbonitrile]
[1]
  IC50: > 0.2 µM
[2]
  IC50: > 0.19 µM
[3]
  IC50: 0.725 µM
[4]
  IC50: 0.723 µM

## CN(C)CCCN1CCc2cc(Nc3ncc4cc(C#N)c(=O)n(C5CCCC5)c4n3)ccc2C1 [Compound No. 72, 8-cyclopentyl-2-((2-(3-(dimethylamino)propyl)-1,2,3,4-tetrahydroisoquinolin-6-yl)amino)-7-oxo-7,8-dihydropyrido[2,3-d]pyrimidine-6-carbonitrile]
[2]
  IC50: 0.001 µM
[3]
  IC50: 0.985 µM
[4]
  IC50: 0.33 µM

## N#Cc1cc2cnc(Nc3cc4c(cc3F)CNCC4)nc2n(C2CCCC2)c1=O [Compound No. 84, 8-cyclopentyl-2-((7-fluoro-1,2,3,4-tetrahydroisoquinolin-6-yl)amino)-7-oxo-7,8-dihydropyrido[2,3-d]pyrimidine-6-carbonitrile]
[1]
  IC50: > 0.2 µM
[2]
  IC50: 0.116 µM
[3]
  IC50: 2.52 µM
[4]
  IC50: 2 µM

## CN(C)CCN1CCC(n2ccc(Nc3ncc4cc(C#N)c(=O)n(C5CCCC5)c4n3)cc2=O)CC1 [Compound No. 73, 8-cyclopentyl-2-((1-(1-(2-(dimethylamino)ethyl)piperidin-4-yl)-2-oxo-1,2-dihydropyridin-4-yl)amino)-7-oxo-7,8-dihydropyrido[2,3-d]pyrimidine-6-carbonitrile]
[1]
  IC50: 0.015 µM
[2]
  IC50: 0.028 µM
[3]
  IC50: > 8.43 µM
[4]
  IC50: 1.59 µM

## CC(C)Cn1c(=O)c(C#N)cc2cnc(Nc3ccc4c(c3)CCNC4)nc21 [Compound No. 81, 8-isobutyl-7-oxo-2-((1,2,3,4-tetrahydroisoquinolin-6-yl)amino)-7,8-dihydropyrido[2,3-d]pyrimidine-6-carbonitrile]
[1]
  IC50: > 0.2 µM
[2]
  IC50: 0.137 µM
[3]
  IC50: 0.585 µM
[4]
  IC50: 0.641 µM

## N#Cc1cc2cnc(Nc3ccc4c(c3)CCCC(=O)N4)nc2n(C2CCCC2)c1=O [Compound No. 83, 8-cyclopentyl-7-oxo-2-((2-oxo-2,3,4,5-tetrahydro-1H-benzo[b]azepin-7-yl)amino)-7,8-dihydropyrido[2,3-d]pyrimidine-6-carbonitrile]
[1]
  IC50: 0.084 µM
[2]
  IC50: 0.024 µM
[3]
  IC50: 0.82 µM
[4]
  IC50: 1.06 µM

## CN(C)CCN1CCC(Nc2ncc3cc(C#N)c(=O)n(C4CCCC4)c3n2)CC1 [Compound No. 67, 8-cyclopentyl-2-((1-(2-(dimethylamino)ethyl)piperidin-4-yl)amino)-7-oxo-7,8-dihydropyrido[2,3-d]pyrimidine-6-carbonitrile]
[1]
  IC50: > 0.14 µM
[2]
  IC50: > 0.2 µM
[3]
  IC50: 4.45 µM
[4]
  IC50: 1.64 µM

## N#Cc1cc2cnc(Nc3cnc4c(c3)CNCC4)nc2n(C2CCCC2)c1=O [Compound No. 77, 8-cyclopentyl-7-oxo-2-((5,6,7,8-tetrahydro-1,6-naphthyridin-3-yl)amino)-7,8-dihydropyrido[2,3-d]pyrimidine-6-carbonitrile]
[1]
  IC50: 0.132 µM
[2]
  IC50: 0.043 µM
[3]
  IC50: 4.55 µM
[4]
  IC50: 0.452 µM

## N#Cc1cc2cnc(Nc3ccc4c(c3)C(=O)NCCC4)nc2n(C2CCCC2)c1=O [Compound No. 79, 8-cyclopentyl-7-oxo-2-((1-oxo-2,3,4,5-tetrahydro-1H-benzo[c]azepin-8-yl)amino)-7,8-dihydropyrido [2,3-d]pyrimidine-6-carbonitrile]
[1]
  IC50: > 0.147 µM
[2]
  IC50: 0.038 µM
[3]
  IC50: 4.05 µM
[4]
  IC50: 1.84 µM

## CN(C)CCN1Cc2cc(Nc3ncc4cc(C#N)c(=O)n(C5CCCC5)c4n3)ccc2C(C)(C)C1 [Compound No. 76, 8-cyclopentyl-2-((2-(2-(dimethylamino)ethyl)-4,4-dimethyl-1,2,3,4-tetrahydroisoquinolin-7-yl)amino)-7-oxo-7,8-dihydropyrido[2,3-d]pyrimidine-6-carbonitrile]
[1]
  IC50: 0.0095 µM
[2]
  IC50: 0.006 µM
[3]
  IC50: 0.66 µM
[4]
  IC50: 0.793 µM

## CC1(C)CCCC1n1c(=O)c(C#N)cc2cnc(NC3CCN(S(C)(=O)=O)CC3)nc21 (centres unmarked) [Compound No. 388, 8-(2,2-dimethylcyclopentyl)-2-(1-(methylsulfonyl)piperidin-4-ylamino)-7-oxo-7,8-dihydropyrido[2,3-d]pyrimidine-6-carbonitrile]
[1]
  IC50: 0.011 µM
[2]
  IC50: 0.009 µM
[3]
  IC50: > 5.26 µM

## N#Cc1cc2cnc(Nc3ccc4c(c3)CNCCC4)nc2n(C2CCCC2)c1=O [Compound No. 78, 8-cyclopentyl-7-oxo-2-((2,3,4,5-tetrahydro-1H-benzo[c]azepin-8-yl)amino)-7,8-dihydropyrido[2,3-d]pyrimidine-6-carbonitrile]
[1]
  IC50: 0.033 µM
[2]
  IC50: 0.015 µM
[3]
  IC50: 1.67 µM
[4]
  IC50: 0.751 µM

## CC(=O)N1CCc2cc(Nc3ncc4cc(C#N)c(=O)n(C5CCCC5)c4n3)ccc2C1 [Compound No. 71, 2-((2-acetyl-1,2,3,4-tetrahydroisoquinolin-6-yl)amino)-8-cyclopentyl-7-oxo-7,8-dihydropyrido[2,3-d]pyrimidine-6-carbonitrile]
[2]
  IC50: 0.005 µM
[3]
  IC50: 1.65 µM
[4]
  IC50: 0.793 µM

## CN(C)CCN1CCc2ccc(Nc3ncc4cc(C#N)c(=O)n(C5CCCC5)c4n3)cc2C1=O [Compound No. 68, 8-cyclopentyl-2-((2-(2-(dimethylamino)ethyl)-1-oxo-1,2,3,4-tetrahydroisoquinolin-7-yl)amino)-7-oxo-7,8-dihydropyrido[2,3-d]pyrimidine-6-carbonitrile]
[1]
  IC50: > 0.2 µM
[2]
  IC50: > 0.2 µM
[3]
  IC50: > 10 µM
[4]
  IC50: > 10 µM

## COCCN1CCc2cc(Nc3ncc4cc(C#N)c(=O)n(C5CCCC5)c4n3)ccc2C1 [Compound No. 75, 8-cyclopentyl-2-((2-(2-methoxyethyl)-1,2,3,4-tetrahydroisoquinolin-6-yl)amino)-7-oxo-7,8-dihydropyrido[2,3-d]pyrimidine-6-carbonitrile]
[1]
  IC50: 0.007 µM
[2]
  IC50: 0.0055 µM
[3]
  IC50: 1.05 µM
[4]
  IC50: 0.598 µM

## N#Cc1cc2cnc(Nc3ccc4c(c3)CCCNC4=O)nc2n(C2CCCC2)c1=O [Compound No. 82, 8-cyclopentyl-7-oxo-2-((1-oxo-2,3,4,5-tetrahydro-1H-benzo[c]azepin-7-yl)amino)-7,8-dihydropyrido[2,3-d]pyrimidine-6-carbonitrile]
[1]
  IC50: > 0.2 µM
[2]
  IC50: 0.131 µM
[3]
  IC50: 0.25 µM
[4]
  IC50: 0.305 µM

## Cc1c(C#N)c(=O)n(C2CCCC2)c2nc(NC3CCN(S(C)(=O)=O)CC3)ncc12 [Compound No. 389, 8-cyclopentyl-5-methyl-2-(1-(methylsulfonyl)piperidin-4-ylamino)-7-oxo-7,8-dihydropyrido[2,3-d]pyrimidine-6-carbonitrile]
[1]
  IC50: 0.0075 µM
[2]
  IC50: 0.011 µM
[3]
  IC50: 4.22 µM

## CN(C)CCN1CCc2nc(Nc3ncc4cc(C#N)c(=O)n(C5CCCC5)c4n3)ccc2C1 [Compound No. 64, 8-cyclopentyl-2-((6-(2-(dimethylamino)ethyl)-5,6,7,8-tetrahydro-1,6-naphthyridin-2-yl)amino)-7-oxo-7,8-dihydropyrido[2,3-d]pyrimidine-6-carbonitrile]
[1]
  IC50: > 0.2 µM
[2]
  IC50: 0.032 µM
[3]
  IC50: 4.75 µM
[4]
  IC50: 3.59 µM
